Legend:
[1] = system: constitutive aphA-3-lacZ reporter; experiment: E. coli constitutive aphA-3-lacZ reporter (pVT19), LasR reporter conditions; assay type: cell-based; details: Escherichia coli, read-out: IC50 ± CI, Constitutive reporter
From the text: (§1) To characterize compounds for their potential activity as LasR antagonists, we used heterologous E. coli, which enables LasR to be isolated from other host regulation effects. We used an E. coli strain expressing LasR from an arabinose-inducible promoter (Para-lasR) on plasmid pJN105-L and a second plasmid with the LasR-inducible lasI promoter fused to a promoterless lacZ reporter (PlasI-lacZ) on plasmid pSC11-L (Fig. 2A). […] As a control, we also constructed an E. coli strain carrying a plasmid with lacZ expressed from the constitutive aphA-3 promoter ([29], [30]), pVT19.
(§2) To assess LasR activation of lasR expression in recombinant E. coli, we used E. coli strain DH5α carrying two plasmids; plasmid pJN105-L ([50]) with an arabinose-inducible P. aeruginosa lasR and plasmid pSC11-L ([51]) with the promoter of the LasR-responsive gene lasI fused to a lacZ reporter. For some studies, pJN105-L was replaced with derivatives of this plasmid encoding LasR mutants with single amino acid substitutions ([33]). To assess RhlR activation of rhlR expression in recombinant E. coli, we used E. coli DH5α with plasmid pECP61.5 ([38]) with an IPTG-inducible ptac-rhlR and an RhlR-responsive gene rhlA fused to the lacZ reporter. For constitutive expression of the lacZ reporter, we used E. coli DH5α with plasmid pVT19, which has the lacZ gene fused to the constitutive aphA-3 promoter. To construct pVT19, the constitutive aphA-3 promoter ([29], [30]) was amplified from a pTCV-lac derivative using primers Vlac1 and Vlac2 ([30]). The resulting amplicon was digested with EcoRI and BamHI and ligated into similarly digested pKS12A ([52]). The resulting plasmid with the aphA-3 promoter transcriptionally fused to lacZ was designated pVT19. For constitutive expression of the gfp reporter, we used E. coli DH5α with plasmid pUC18T-mini-Tn7T-Gm-gfpmut3 ([53]).
(§3) To assess LasR activation of lasR expression in recombinant E. coli, overnight cultures of E. coli DH5α pSC11-L and pJN105-L were diluted 1:100 into LB containing selection antibiotics gentamicin and ampicillin in 10 mL cultures. When the cultures reached an OD600 of 0.2–0.3, L-(+)-arabinose was added to a final concentration of 0.25%. […] Aliquots (5 µL) of increasing concentrations of inhibitor test compound stock solution in DMSO were then added to the designated micro centrifuge tubes containing culture. Tubes containing E. coli with just signal and DMSO were included as controls. After 3 h at 37°C with shaking, OD600 was measured using a plate reader, and β-galactosidase activity was measured as described above.
(§4) Experiments with the LasR mutants and the constitutive lacZ expression plasmid pVT19 or constitutive gfp expression plasmid pUC18T-mini-Tn7T-Gm-gfpmut3 were carried out identically as described above for the LasR or RhlR bioreporter experiments. Results with the […] constitutive reporter strain were different for the LasR vs RhlR bioreporter protocols likely due to differences in growth conditions (temperature and/or growth media).

LasR = molecular target: T1, LasR (Pseudomonas aeruginosa, UniProt P25084); experiment: E. coli LasR bioreporter (Para-lasR, PlasI-lacZ), β-galactosidase readout; assay type: cell-based; details: for IC50: IC50 ± CI, LasR reporter, competed against 100 nM 3OC12-HSL, 95% confidence interval in parentheses; for fold lower concentration inhibiting LasR-specific reporter than constitutive reporter: IC50 constitutive reporter vs LasR reporter
T1 construct: expressed in transfected cells; host or cells: E. coli DH5α carrying pJN105-L and pSC11-L
T1 sequence (P25084 whole entry): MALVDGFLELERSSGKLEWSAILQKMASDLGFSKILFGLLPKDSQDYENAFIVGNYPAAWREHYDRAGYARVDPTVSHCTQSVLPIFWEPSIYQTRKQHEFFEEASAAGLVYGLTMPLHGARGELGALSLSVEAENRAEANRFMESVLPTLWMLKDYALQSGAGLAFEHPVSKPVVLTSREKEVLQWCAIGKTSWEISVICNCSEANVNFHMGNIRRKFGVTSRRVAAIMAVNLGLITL
From the text: as §1, §2, §3

RhlR = molecular target: T2, RhlR (Pseudomonas aeruginosa, UniProt P54292); experiment: E. coli RhlR bioreporter (pECP61.5, rhlA-lacZ), β-galactosidase readout; assay type: cell-based
T2 construct: expressed in transfected cells; host or cells: E. coli DH5α carrying pECP61.5
T2 sequence (P54292 whole entry): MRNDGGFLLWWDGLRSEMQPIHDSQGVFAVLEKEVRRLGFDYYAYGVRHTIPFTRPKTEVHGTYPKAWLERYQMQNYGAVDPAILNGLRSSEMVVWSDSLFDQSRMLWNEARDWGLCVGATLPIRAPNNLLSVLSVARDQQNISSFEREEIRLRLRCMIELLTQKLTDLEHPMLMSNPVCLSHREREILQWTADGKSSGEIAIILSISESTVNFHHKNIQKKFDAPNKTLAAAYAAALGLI
From the text: (§5) To test the ability of our set of benzaldehydes and related compounds to antagonize RhlR, we generated dose-response curves with these compounds using an E. coli RhlR reporter strain (Fig. 6; Table 2). This strain is analogous to the LasR reporter above, but it carries plasmid pECP61.5 expressing RhlR from the isopropyl β-D-1-thiogalactopyranoside (IPTG)-inducible […] promoter as well as the rhlA-lacZ reporter ([38]). We also utilized our constitutive lacZ reporter plasmid pVT19 to generate dose-response curves using the RhlR assay conditions (Fig. 6; Table 2). […] With the constitutive lacZ reporter, there was a similar spread in potencies for our compounds, with ortho-vanillin having the lowest IC50 and salicylic acid as the highest. However, the IC50 for ortho-vanillin was fivefold lower with RhlR than with the constitutive lacZ reporter. There were also no observed effects of ortho-vanillin on growth until concentrations at which there was >50% antagonism of the RhlR reporter, and there was no antagonism of the constitutive lacZ reporter until concentrations >500 µM.
as §2
(§6) To assess RhlR activation of rhlR expression in recombinant E. coli, overnight cultures of E. coli DH5α pECP61.5 grown at 30°C in A medium containing antibiotic selection (ampicillin) and IPTG to induce RhlR expression were diluted to an OD600 of 0.1, and 1 mL was added to culture tubes containing dried C4-HSL. Aliquots (5 µL) of DMSO containing increasing concentrations of inhibitor test compound or DMSO with no test compound were added to the designated Eppendorf tubes containing culture. Tubes containing E. coli with signal and DMSO were included as vehicle control. After 5 h at 30°C with shaking, OD600 was measured using a plate reader, and β-galactosidase activity was measured as described above.

[2] = system: constitutive aphA-3-lacZ reporter; experiment: E. coli constitutive aphA-3-lacZ reporter (pVT19), RhlR reporter conditions; assay type: cell-based, Escherichia coli; details: for IC50: Escherichia coli
From the text: as §5, §2, §6, §4

[3] = system: constitutive GFP reporter; experiment: E. coli constitutive GFP reporter (pUC18T-mini-Tn7T-Gm-gfpmut3); assay type: cell-based, Escherichia coli
From the text: To test whether these effects were specific to the lacZ reporter or general to other reporters, we generated an orsellinaldehyde dose-response curve using a strain constitutively expressing GFP (E. coli carrying a constitutive GFP-producing plasmid pUC18T-mini-Tn7T-Gm-gfpmut3).
as §2, with “The resulting plasmid with the aphA-3 promoter transcriptionally fused to lacZ was designated pVT19. For constitutive expression of the gfp reporter, we used E. coli DH5α with plasmid pUC18T-mini-Tn7T-Gm-gfpmut3 ([53]).” left out

E. coli = experiment: Growth (OD600) of E. coli reporter strain, LasR reporter conditions; assay type: cell-based, Escherichia coli; details: at the highest concentrations
Description: as §3

LasR mutants [4] = molecular target: T3, LasR mutants (Pseudomonas aeruginosa, UniProt P25084, S129A); experiment: E. coli LasR mutant lasI-lacZ reporters (W60F, Y56F, T75V, Y93F, S129A); assay type: cell-based; details: S129A mutant
T3 construct: expressed in transfected cells; host or cells: E. coli DH5α carrying pSC11-L and a pJN105-L mutant analog (pJG044, pJG008, pJG011, pJG012 or pJG014)
T3 sequence (P25084 whole entry S129A): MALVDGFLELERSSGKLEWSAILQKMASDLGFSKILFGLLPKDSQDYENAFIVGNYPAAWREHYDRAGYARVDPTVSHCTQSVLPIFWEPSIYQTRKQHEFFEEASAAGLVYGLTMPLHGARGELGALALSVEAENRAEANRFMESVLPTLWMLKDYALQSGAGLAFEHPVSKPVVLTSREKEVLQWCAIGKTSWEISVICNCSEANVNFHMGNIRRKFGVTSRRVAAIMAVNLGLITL
From the text: (§7) To examine these putative interactions between ortho-vanillin and LasR, we determined the activity of ortho-vanillin in several LasR mutants. In prior studies in our laboratories, a set of LasR mutants were generated in which residues within the ligand-binding pocket were mutated to a different residue of similar steric size but without the capability to hydrogen bond (e.g., Tyr → Phe). These mutants were introduced into E. coli to generate lasI-lacZ reporters analogous to the wild-type LasR reporter above (see Table S1 and Materials and Methods). From that set, we selected five LasR mutant reporters to test ortho-vanillin (W60F, Y56F, T75V, Y93F, and S129A), which included the Thr75 and Ser129 residues predicted to be important for ortho-vanillin interaction in our in silico study. […] As a control, we also tested the ability of V-06–018 to antagonize the LasR S129A mutant. We used the same approach to test the ability of […] to antagonize LasR and the LasR S129A mutant. […] Results from one of the concentrations (100 µM) are shown instead.
as §2, with “The resulting amplicon was digested with EcoRI and BamHI and ligated into similarly digested pKS12A ([52]). The resulting plasmid with the aphA-3 promoter transcriptionally fused to lacZ was designated pVT19. For constitutive expression of the gfp reporter, we used E. coli DH5α with plasmid pUC18T-mini-Tn7T-Gm-gfpmut3 ([53]).” left out

LasR mutants [5] = experiment: as above; assay type: cell-based, Pseudomonas aeruginosa; details: W60F, Y56F, T75V, Y93F, S129A; competed against 3OC12-HSL at EC50 of each mutant
From the text: as §7
as §2, with “The resulting amplicon was digested with EcoRI and BamHI and ligated into similarly digested pKS12A ([52]). The resulting plasmid with the aphA-3 promoter transcriptionally fused to lacZ was designated pVT19. For constitutive expression of the gfp reporter, we used E. coli DH5α with plasmid pUC18T-mini-Tn7T-Gm-gfpmut3 ([53]).” left out

[6] = IC50 ± CI, RhlR reporter, competed against 400 nM C4-HSL, 95% confidence interval in parentheses
[7] = read-out: IC50 ± CI, Constitutive reporter

COc1ccc(C=O)c(O)c1 [2-hydroxy-4-methoxybenzaldehyde]
IC50 [1]: 1960 µM | IC50 (LasR): 1040 µM | IC50 (RhlR; [6]): 458 µM | IC50 [2, 7]: 1360 µM

Cc1ccc(O)c(C=O)c1 [2-hydroxy-5-methylbenzaldehyde]
IC50 [1]: 2020 µM | fold lower concentration inhibiting LasR-specific reporter than constitutive reporter (LasR): 1.3 fold | IC50 (LasR): 1500 µM | IC50 (RhlR; [6]): 1080 µM | IC50 [2, 7]: 1790 µM

O=C/C=C/c1ccccc1 [Cinnamaldehyde]
IC50 [1]: 1460 µM | IC50 (LasR): 851 µM | IC50 (RhlR; [6]): 1310 µM | IC50 [2, 7]: 2850 µM

Cc1cc(O)cc(O)c1C=O [Orsellinaldehyde]
IC50 [1]: 2310 µM | IC50 (LasR): 2370 µM | calculated LD50 of orsellinaldehyde with GFP ([3]; E. coli constitutive GFP reporter, Fig. S1 legend): 1057 µM | IC50 ([3]; Escherichia coli, read-out: IC50, constitutive GFP reporter): 1060 µM | IC50 (RhlR; [6]): 956 µM | reduction of growth yield (E. coli): 10%–20% | IC50 [2, 7]: 2750 µM

O=C(O)c1ccccc1O [Salicylic acid, reference compound]
IC50 [1]: 3650 µM | IC50 (RhlR; IC50, RhlR reporter, competed against C4-HSL): ~10000 µM | IC50 (RhlR; [6]): 10000 µM | IC50 [2, 7]: 6260 µM

CCCCCCCCCC(=O)CC(=O)Nc1ccccc1 [V-06–018]
antagonism of LasR S129A mutant compared with wild-type LasR (LasR mutants [4]; competed against 3OC12-HSL at its EC50): significantly less active | IC50, LasR S129A mutant (LasR mutants [4]; insufficient antagonism): could not be determined

COc1cccc(C=O)c1O [ortho-Vanillin]
IC50 [1]: 1260 µM | difference in IC50 with varying 3OC12-HSL concentration (competition test) (LasR; 3OC12-HSL at […] nM, 1 µM and 10 µM, P > 0.07): not significant | fold lower concentration inhibiting LasR-specific reporter than constitutive reporter (LasR): threefold | IC50 (LasR): 437 µM | antagonism of LasR mutants compared with wild-type LasR (LasR mutants [5]): indistinguishable from that of the wild-type LasR | change in potency with varying C4-HSL concentration (competition test) (RhlR; C4-HSL at 400 nM, 10 µM and 100 µM): significant C4-HSL concentration-dependent decrease in the potency | fold lower IC50 with RhlR than with constitutive lacZ reporter (RhlR; IC50 constitutive lacZ reporter vs RhlR reporter): fivefold | IC50 (RhlR; [6]): 151 µM | IC50 ([2]; read-out: IC50, Constitutive reporter, Hill slope set at 1.0): 774 µM | IC50 [2, 7]: 872 µM | concentration until which there was no antagonism of the constitutive lacZ reporter ([2]; RhlR reporter conditions): > 500 µM

Source: publication PMC11370260 (Microbiology Spectrum, 2024)
